Read-outs that look alike come from different tables or passages of the source.
Tests used:
L6 myotube cells [1] = test: Glucose uptake (2-deoxy-D-[14C]-glucose) in muscle cells; type: cell-based, rat
Procedure: (§1) To differentiate rat myoblast L6 cells into myotubes, it was suspended at a concentration of 1×10^4 cells/ml in MEM medium (Welgene) supplemented with 10% of Fetal Bovine Serum and 1% of antibiotic antimycotic, and then 500 μl each was inoculated into a 24-well plate and cultured to the full for 2 days. […] The differentiated myotube cells were replaced with serum-free medium before the experiment and left for 6 hours. Myotube cells were pretreated with 100 nM porcine-derived insulin and 20 μM cytochalacin B for 15 minutes, and other samples were pretreated for 30 minutes. […] After the reaction, the cells were washed twice with Krebs-Ringer buffer (20 mM Tris-HCl, 2 mM EDTA, and 0.5 mM EGTA, pH 7.4), and the cells were lysed with 0.5N NaOH and mixed with a scintillation cocktail. The intracellular radiation dose of 2-DG was measured using a liquid scintillation counter (Tri-Carb 2900TR liquid scintillation analyzer, Perkin Elmer).

3T3-L1 cells [2] = details: for Cell Viability: mouse
Procedure: DMEM medium (Gibco) supplemented with 10% Bovine Calf Serum and 1% Penicillin-streptomycin was used as a growth media (GM) to culture 3T3-L1 cells, which are mouse preadipocytes. The suspension was suspended at a concentration of 2×10^3 cells/ml, and 100 μl each was inoculated into a 96-well plate, and the cells were cultured to full capacity for 3 days. In order to induce fat differentiation, DMEM medium containing 10% FBS was replaced with a differentiation media (DM) supplemented with insulin, dexamethasone and 3-isobutyl-1-methylxanthine (IBMX), and cultured for 2 days. After 2 days, DMEM medium containing 10% FBS containing insulin was added to the existing medium. […] As described in the CCK-8 (Dojindo) kit for counting cells, 10 μl of CCK-8 solution was mixed with 90 μl of medium and added at 100 μl per well. After reacting for at least 30 minutes to 1 hour, absorbance was measured at 450 nm.

3T3-L1 cells [3] = test: Triglyceride production, Adipogenesis Colorimetric Assay; type: cell-based, mouse
Procedure: 3T3-L1 cells, which are preadipocytes of mice, are suspended at a concentration of 2×10^4 cells/ml using Dulbecco's Modified EaDCRT media (DMEM, Gibco) containing 10% of Bovine Calf Serum as a growth media (GM), and then inoculated into 24-well plates at 1 ml each, and then adipocytes were cultured for 3 days to become confluent. In order to induce adipocyte differentiation, DMEM media containing 10% FBS was replaced with differentiation media (DM) supplemented with insulin, dexamethasone and 3-isobutyl-1-methylanthin (IBMX) and cultured for 2 days. After 2 days, DMEM media containing 10% FBS containing insulin was added to the existing medium. […] After differentiation was induced under the same conditions as above, triglyceride (TG) produced was measured using an Adipogenesis Colorimetric Assay (Biovision) kit. According to the protocol provided in the kit, after washing the cells once with PBS, 100 μl of Lipid Extract solution was added to scrape the cells, and the cells were placed at 90° C. for 30 minutes. Thereafter, the supernatant, which had turned cloudy, was left at room temperature until it became transparent, and then 50 μl of the supernatant was obtained and transferred to a 96-well plate. After adding 2 μl of lipase and reacting for 10 minutes, 50 μl of the reaction mixture containing the probe and enzyme mix was added and reacted, and the degree of color development was measured at 570 nm with a microplate meter. The concentration of triglyceride produced in the cells was determined using a standard curve for each concentration according to the triglyceride sample included in the kit.

L6 myotube cells [4] = test: Isobologram analysis of glucose absorption capacity, chiisanogenin and Ca-HCA; type: cell-based; details: Rattus norvegicus; differentiated L6 myotube cells, single compound
Procedure: as §1

3T3-L1 cells [5] = test: Fat accumulation, Oil Red O staining; type: cell-based, mouse
Procedure: 3T3-L1 cells, which are preadipocytes of mice, are suspended at a concentration of 2×10^4 cells/ml using Dulbecco's Modified EaDCRT media (DMEM, Gibco) containing 10% of Bovine Calf Serum as a growth media (GM), and then inoculated into 24-well plates at 1 ml each, and then adipocytes were cultured for 3 days to become confluent. […] In order to measure lipid accumulation after inducing the adipocyte differentiation, it was measured using Oil red 0 staining analysis (Sigma-aldrich). To fix the cells, 1% formaldehyde (based on distilled water) was added and reacted at 4° C. for 1 hour, followed by washing with distilled water, and then stained with 500 μl of filtered Oil Red 0 solution at room temperature for 1 hour. Then, after washing with distilled water, 300 μl of 100% isopropyl alcohol was added to extract intracellular oil red 0, and the degree of color development was measured at 492 nm using a microplate measuring instrument.

[6] = Example 12 HFD mice: serum test; type: in vivo, mouse; details: serum of HFD mice, oral once daily for 10 weeks; chiisanogenin 50 mg/kg; Garcinia cambogia extract 200 mg/kg; combination 50 + 150 mg/kg; Met 50 mg/kg
Procedure: The test drug was dispersed in 0.5% Carboxymethyl cellulose (CMC) and administered in a volume of 0.2 ml, and the drug was administered orally by force into the stomach using a metal Zonde for oral administration. Blood was collected by cardiac puncture to conduct a blood biochemical test after the end of the final experiment, and then plasma was separated by centrifugation at 3,000 rpm and 4° C. for 15 minutes within 30 minutes after blood collection, and then stored at −74° C. for blood chemistry and ELISA analysis. The contents of total cholesterol, high-density lipoprotein (HDL), low-density lipoprotein (LDL), triglyceride, FFA, glucose, and LDH, which are indicators of lipid content, were measured using an automated biochemical analyzer (Hitachi-720, Hitachi Medical, Japan). IGF-1 and Creatine were diluted in coating buffer, coated on microwells, and left overnight at 4° C. […] 100 μl of the TMB substrate was dispensed, left in the dark for 30 minutes, treated with 50 μl of the stop solution, and absorbance was measured at a wavelength of 450 nm using an ELISA reader. Results obtained from various experiments are recorded as mean±standard error of mean (SEM), and significance verification is determined using the student's T-test analysis method. […]

PPAR-gamma mRNA = test: Example 12 HFD mice: adipose tissue PPAR-gamma mRNA analysis; type: in vivo, mouse; details: adipose tissue of HFD mice, oral once daily for 10 weeks, chiisanogenin 50 mg/kg, Garcinia cambogia extract 200 mg/kg, combination 50 + 150 mg/kg, Met 50 mg/kg
Procedure: The test drug was dispersed in 0.5% Carboxymethyl cellulose (CMC) and administered in a volume of 0.2 ml, and the drug was administered orally by force into the stomach using a metal Zonde for oral administration. RNA was extracted from tissues using RNAsolB (Tel-Test) solution, and cDNA and real-time PCR analysis were performed using One-step SYBR Green PCR kit (AB science). From the prepared cDNA, a FAM probe of [NT] ID NO: 16) sequence was used to amplify PPAR-gamma mRNA, and a VIC probe of [NT] ID NO: 15) sequence was used to amplify GAPDH mRNA as an intra control. Real time quantitative PCR was performed using the Applied Biosystems 7500 Real-Time PCR system (Applied Biosystems, USA). Results obtained from various experiments are recorded as mean±standard error of mean (SEM), and significance verification is determined using the student's T-test analysis method. The data were analyzed using one-way ANOVA to determine a statistically significant variance between each group for each final point measured, and statistical significance between each group was determined using the nonparametric Mann-Whitney test and Dunnett's multiple comparison test (IBM SPSS statistics version 19.0 statistic software, Inc, IBM, USA).

[7] = Example 12 HFD mice: oral glucose tolerance test; type: in vivo, mouse; details: oral once daily 10 weeks, 50 mg/kg
Procedure: After adapting 8-week-old male C57b1/6 J mice to the basic diet (AIN-76A diet) for 2 weeks, and consuming Diet Induced Obesity Diet Formulas (D12451) 60 kcal % HFD diet for 2 weeks from 10 weeks of age, and then the test drug was administered when the average body weight reached 28 g or more. The animal breeding room environment of the mouse was maintained in a constant temperature (25±2° C.), constant humidity (50±5%) and a 12-hour photoperiod (light on 07:00˜19:00) in which the light and shade were controlled in an SPF environment. […] The test drug was dispersed in 0.5% Carboxymethyl cellulose (CMC) and administered in a volume of 0.2 ml, and the drug was administered orally by force into the stomach using a metal Zonde for oral administration.
[…] Blood to be used for blood glucose measurement was collected from the tail vein of a mouse, and blood glucose was measured using a serum analyzer (Accutrend plus GCTL Cobas Roche, Germany).
Results obtained from various experiments are recorded as mean±standard error of mean (SEM), and significance verification is determined using the student's T-test analysis method. The data were analyzed using one-way ANOVA to determine a statistically significant variance between each group for each final point measured, and statistical significance between each group was determined using the nonparametric Mann-Whitney test and Dunnett's multiple comparison test (IBM SPSS statistics version 19.0 statistic software, Inc, IBM, USA).

[8] = Table 6, mixture ratio 0:10, 25 μg/mL
[9] = Mus musculus, 3T3-L1, read-out: Inhibition Rate (TG production)

## O=C(O)CC(O)(C(=O)O)C(O)C(=O)O (centres unmarked) [Ca-HCA, hydroxy citric acid]
L6 myotube cells [1]; 5 μg/mL
  Glucose absorption rate (%, relative to 100 nM insulin treatment as 100%): 5%
L6 myotube cells [1]; 30 μg/mL
  Glucose absorption rate (%, relative to 100 nM insulin treatment as 100%): 50%
3T3-L1 cells [2]
  Cytotoxicity (conclusion from Tables 3 to 5): not cytotoxic
3T3-L1 cells [2]; 12.5 μg/mL
  Cell Viability: 113.20 ± 14.37%
3T3-L1 cells [2]; 25 μg/mL
  Cell Viability: 115.37 ± 8.86%
3T3-L1 cells [2]; 50 μg/mL
  Cell Viability: 86.24 ± 8.74%
3T3-L1 cells [2]; 100 μg/mL
  Cell Viability: 88.65 ± 11.58%
3T3-L1 cells [3]; Mus musculus, 3T3-L1, Table 9, 25 μg/mL, read-out: Inhibition Rate (TG production)
  inhibition at 25 µg/mL: 6.62 ± 0.98%
3T3-L1 cells [3]; Mus musculus, 3T3-L1, Table 9, 50 μg/mL, read-out: Inhibition Rate (TG production)
  inhibition at 50 µg/mL: 11.4 ± 0.88%
3T3-L1 cells [3]; Table 9, 25 μg/mL
  TG Production Rate (% relative to positive control): 94.51 ± 0.81%
3T3-L1 cells [3]; Table 9, 50 μg/mL
  TG Production Rate (% relative to positive control): 90.54 ± 0.73%
L6 myotube cells [4]
  EC50: 27.6 µM

## C=C(C)[C@@H]1CC[C@]2(C(=O)O)CC[C@]3(C)[C@H](C[C@H]4OC(=O)C[C@@H](O)[C@]5(C)[C@@H]4[C@@]3(C)CC[C@H]5C(=C)C)[C@@H]12 [Chiisanogenin, chiisanogenin]
L6 myotube cells [1]; 5 μg/mL
  Glucose absorption rate (%, relative to 100 nM insulin treatment as 100%): 1%
L6 myotube cells [1]; 15 μg/mL
  Glucose absorption rate (%, relative to 100 nM insulin treatment as 100%): 25%
3T3-L1 cells [2]
  Cytotoxicity (conclusion from Tables 3 to 5): not cytotoxic
3T3-L1 cells [2]; 10 μg/mL
  Cell Viability: 127.27 ± 18.60%
3T3-L1 cells [2]; 12.5 μg/mL
  Cell Viability: 106.41 ± 3.40%
3T3-L1 cells [2]; 50 μg/mL
  Cell Viability: 117.77 ± 9.59%
3T3-L1 cells [2]; 100 μg/mL
  Cell Viability: 104.31 ± 9.72%
3T3-L1 cells [5]; Mus musculus, 3T3-L1, Table 7, 10 μg/mL, read-out: Inhibition Rate (fat accumulation)
  inhibition at 10 µg/mL: 11.3 ± 1.47%
3T3-L1 cells [5]; [8]
  Fat Accumulation Rate (% relative to positive control): 87.21 ± 4.82 %
  Inhibition Rate (fat accumulation): 22.59 ± 7.34%
3T3-L1 cells [5]; Table 7, 10 μg/mL
  Fat Accumulation Rate (% relative to positive control): 95.13 ± 5.90%
[6]
  Creatin (mg/dL), mean ± standard error: 0.635 ± 0.007 mg/dL
3T3-L1 cells [3]; [9]
  inhibition at 10 µg/mL: 11.4 ± 5.34%
  inhibition at 25 µg/mL: 6.47 ± 0.73%
  inhibition at 50 µg/mL: 22.8 ± 0.25%
3T3-L1 cells [3]; Table 8, 10 μg/mL
  TG Production Rate (% relative to positive control): 90.84 ± 4.21%
3T3-L1 cells [3]; Table 9, 25 μg/mL
  TG Production Rate (% relative to positive control): 94.63 ± 0.61%
3T3-L1 cells [3]; Table 9, 50 μg/mL
  TG Production Rate (% relative to positive control): 81.07 ± 0.20%
PPAR-gamma mRNA
  PPAR-γ mRNA Inhibition Rate (%): 49%
PPAR-gamma mRNA; real-time PCR vs GAPDH
  PPAR-γ mRNA, mean ± standard error: 2.134 ± 0.39
L6 myotube cells [4]
  EC50: 23.3 µM
[7]
  Inhibition Rate (OGTT): 38%
[7]; glucose 1 g/kg
  OGTT (30 min-0 min, mg/dL): 127.4 ± 13.03 mg/dL

Reference: patent publication US12390505B2, “Composition for preventing or treating obesity or diabetes, comprising acanthopanax senticosus extract and garcinia cambogia extract or compound isolated therefrom” (KOREA RESEARCH INSTITUTE OF BIOSCIENCE AND BIOTECHNOLOGY, priority 2020, dated 2025)
